Assays:
[1] = molecular target: recombinant GAC (human GAC, residues 72-603); assay: GAC enzyme assay (biochemical assay, glutamate dehydrogenase-coupled, absorbance at 340 nm); details: relative to prior art compound BPTES
Procedure: (§1) Cell culture media and serum were obtained from Invitrogen (Carlsbad, Calif.). All other reagents were obtained from Fisher Scientific (Pittsburgh, Pa.) or Sigma Aldrich (St. Louis, Mo.). MDA-MB-231 cells were purchased from ATCC (Manassas, Va.), and were cultured at 35° C., in 5% CO2, using RPMI-1640 media supplemented with 10% FBS, unless otherwise specified. Recombinant GAC was expressed in E. coli and purified. Briefly, human GAC (residues 72-603) was cloned into the pET28a vector from Novagen, and was expressed as a His6-tagged fusion protein in E. coli. It was then purified by ion exchange and size exclusion chromatography.
Biochemical assays: The GAC inhibitors were solvated in DMSO. Assay vessels were charged with 1 μL of inhibitor in order to effect the reported final concentration. To each vessel was added 95 μL of an aqueous solution containing 48 mM Tris-acetate (pH 8.6), 21 mM glutamine, and 50 nM recombinant GAC. Fifteen μL of either water or 1 M potassium phosphate, pH 8.2, were added to the mixture to begin the reaction. […] The absorbance of both the second and third reactions was recorded at […]. The third reaction was treated as a baseline, and its absorbance was subtracted from that of the second reaction prior to further data analysis. […] Dose curves and IC50 values were determined in Sigmaplot, using the built-in four parameter logistic function.

[2] = tested on: MDA-MB 231 cancer cells; assay: MDA-MB-231 cell proliferation assay (cell counting on 6th day); assay type: cell-based; details: relative to prior art compound BPTES
Procedure: as §1
Cell assays: MDA-MB-231 cells were cultured in RPMI-1640 media supplemented with 10% FBS. Prior to initiating the assay, cells that were 70-80% confluent were trypsinized. These cells were diluted, counted, and dispensed into 12-well culture plates at a density of 2×10^4 cells per well. Each well was then brought to 1 mL of media, total. The cells were allowed to adhere to the wells overnight, at which point they were recounted (day 0 of the assay). […] Cells were counted on the 6th day of culture. […] Cells were then counted on a hemocytometer, with 3 readings taken and averaged per sample. […] Dose curves and IC50 values were determined in Sigmaplot, using the built-in four parameter logistic function.

O=C(Cc1ccccc1)Nc1nnc(OC2CCN(c3nnc(NC(=O)Cc4ccccc4)s3)CC2)s1 [UPGL00019, 2-Phenyl-N-{5-[1-(5-phenylacetylamino-[1,3,4]thiadiazol-2-yl)-piperidin-4-yloxy]-[1,3,4]thiadiazol-2-yl}-acetamide]
IC50 in the GAC enzyme assay compared directly to BPTES [1]: one order of magnitude better | IC50 in inhibiting the proliferation of MDA-MB 231 cancer cells in vitro compared to BPTES [2]: better than BPTES by 2 orders of magnitude
